According to ChEMBL document CHEMBL1124124, “Synthesis and interaction with uridine phosphorylase of 5'-deoxy-4',5-difluorouridine, a new prodrug of 5-fluorouracil” (J Med Chem, 1988):

What was measured:
[1] = Half life at pH 7.5; format: ADME; details: buffer
[2] = Half life at pH 1; format: ADME; details: buffer
L1210 = assay: Inhibition of cell growth of L1210 mouse Leukemia cells; format: functional, cell-based
[3] = Half life at pH 7.5; Not detectable hydrolysis after 7 days; format: ADME; details: buffer, pH 7.5, 168 h

Structure (SMILES) | half-life [1] [h] | half-life [2] [h] | IC50 (L1210) [nM] | T1/2 [3]
C[C@@]1(F)OC(n2cc(F)c(=O)[nH]c2=O)[C@H](O)[C@@H]1O (some centres not stated) | 12 | 0.5 | 300 | 
O=c1[nH]cc(F)c(=O)[nH]1 [FLUOROURACIL] |  |  | 300 | 
C[C@H]1O[C@@H](n2cc(F)c(=O)[nH]c2=O)[C@H](O)[C@@H]1O [DOXIFLURIDINE] |  | 250 | 3000 | No detectable hydrolysis
